What was measured:
[1] = tested on: TNF-α release in THP-1 cells; assay: SYK independent TNF-α release assay (LPS stimulation); assay type: cell-based; conditions: Homo sapiens, 18-hour incubation
Method: Compounds of the present invention are tested for their effects on TNF-α release in human acute monocytic leukimia cell line (THP-1) to illustrate potential efficacy at the cellular level. TNF-α is a cytokine involved in systemic inflammation and is a member of a group of cytokines that stimulate the acute phase reaction. The primary role of TNF-α is in the regulation of immune cells. TNF-α is known to induce apoptotic cell death and inflammation and to inhibit early tumorigenesis and viral replication. Dysregulation and, in particular, overproduction of TNF-α have been implicated in a variety of human diseases, autoimmune disease, inflammation, arthritis and cancer.
Production or release of TNF-α is controlled by type of stimulus to which the cell responds. SYK activity is involved in mediating TNF-α production. When stimulated by IgG, cells increase TNF-α production in a SYK dependent manner (i.e., the SYK dependent pathway). However, when stimulated by lipopolysaccharide (LPS), they produce TNF-α in a SYK independent manner.
For SYK independent TNF-α release assay (i.e., via lipopolysaccharide (LPS)-stimulation), THP-1 cells derived from human monocytic cells were obtained from the American Type Culture Collection (ATCC, Manassas, Va.). This cell line was maintained with an RPMI medium (GIBCO™) containing 10 fetal bovine serum (FBS, GIBCO™) and 0.05 mM 2-mercaptoethanol. The THP-1 cells were seeded at 1×10^5 cells/100 μL/well into 96-well culture plates, and treated with lipopolysaccharide (1 μg/ml), and serially diluted compound was then added. After an 18-hour incubation period at 37° C., supernatants were collected for the determination of the TNF-α level by ELISA, and the remaining cells were subjected to an MTT assay to determine the cytotoxic effects.

[2] = molecular target: T1, FAK (Homo sapiens, UniProt Q05397); assay: Kinase inhibition assay: FAK; assay type: biochemical; conditions: at 1 μM concentration
T1 construct: truncated human FAK, RET, FLT3, JAK2, and LRRK2; purchased Carna Biosciences
T1 sequence (Q05397 376-1052 limits assumed): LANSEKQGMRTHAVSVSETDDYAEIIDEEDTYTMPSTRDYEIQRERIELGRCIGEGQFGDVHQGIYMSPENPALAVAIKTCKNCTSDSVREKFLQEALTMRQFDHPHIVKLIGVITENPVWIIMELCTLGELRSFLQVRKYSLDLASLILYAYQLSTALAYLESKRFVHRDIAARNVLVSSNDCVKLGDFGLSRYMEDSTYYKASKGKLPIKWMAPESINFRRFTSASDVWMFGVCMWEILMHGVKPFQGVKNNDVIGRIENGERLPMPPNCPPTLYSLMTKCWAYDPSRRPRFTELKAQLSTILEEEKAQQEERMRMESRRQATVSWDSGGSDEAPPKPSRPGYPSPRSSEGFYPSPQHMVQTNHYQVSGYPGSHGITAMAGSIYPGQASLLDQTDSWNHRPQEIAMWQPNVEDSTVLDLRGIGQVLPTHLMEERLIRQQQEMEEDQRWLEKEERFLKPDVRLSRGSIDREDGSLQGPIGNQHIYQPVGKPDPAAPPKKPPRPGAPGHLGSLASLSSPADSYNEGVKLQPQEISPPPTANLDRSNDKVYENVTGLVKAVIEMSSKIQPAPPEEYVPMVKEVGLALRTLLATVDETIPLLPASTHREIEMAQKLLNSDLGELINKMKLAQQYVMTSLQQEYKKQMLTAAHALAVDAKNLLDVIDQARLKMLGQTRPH
Method: (§1) Compounds of the present invention were tested for their capacity to inhibit a kinase panel which includes, but are not limited to, spleen tyrosine kinase (SYK), zeta-chain-associated protein kinase 70 (ZAP70), PTK2B protein tyrosine kinase 2 (PYK2), focal adhesion kinase (FAK), provirus integration of maloney kinase 1 (PIM1), rearranged during transfection kinase (RET), Fms-like tyrosine kinase 3 (FLT3), Janus kinase 2 (JAK2), and leucine-rich repeat kinase 2 (LRRK2).
(§2) Inhibition of SYK, ZAP70, PYK2, FAK, PIM1, RET, FLT3, JAK2 and LRRK2 Kinase Activity
(§3) Compounds of the invention were initially diluted to 10 mM in 100% DMSO (CALBIOCHEM™) for storage and made into kinase buffer solution to create a compound concentration ranging from 1 uM and 10 uM. Serial dilutions of compounds of the invention were dispensed into a 96-well plate (GREINER BIOSCIENCES™) at 6 μL each. Purified full-length human SYK, ZAP70, PIM1, PYK2 and truncated human FAK, RET, FLT3, JAK2, and LRRK2 (CARNA BIOSCIENCES™) were diluted in kinase buffer and added to the compound solutions and pre-incubated for 30 minutes at room temperature (1 hour for PYK2). […] The reaction mixture was incubated for 1 hour (2 hours for PYK2). Following the incubation, the stop solution made with EDTA, water, and Lance detection buffer ([…]™) was added (12μL each) to stop phosphorylation. […] The IC50 value of test compound was calculated at Gradpad Prism 5 unless specified otherwise.

[3] = molecular target: T2, SYK (Homo sapiens, UniProt P43405); assay: Kinase inhibition assay: SYK; assay type: biochemical; conditions: at 1 μM concentration
T2 construct: Purified full-length human SYK, ZAP70, PIM1, PYK2; purchased Carna Biosciences

[4] = molecular target: T3, PIM1 (Homo sapiens, UniProt P11309); assay: Kinase inhibition assay: PIM1; assay type: biochemical; conditions: at 1 μM concentration
T3 construct: Purified full-length human SYK, ZAP70, PIM1, PYK2; purchased Carna Biosciences
T3 sequence (P11309 whole entry): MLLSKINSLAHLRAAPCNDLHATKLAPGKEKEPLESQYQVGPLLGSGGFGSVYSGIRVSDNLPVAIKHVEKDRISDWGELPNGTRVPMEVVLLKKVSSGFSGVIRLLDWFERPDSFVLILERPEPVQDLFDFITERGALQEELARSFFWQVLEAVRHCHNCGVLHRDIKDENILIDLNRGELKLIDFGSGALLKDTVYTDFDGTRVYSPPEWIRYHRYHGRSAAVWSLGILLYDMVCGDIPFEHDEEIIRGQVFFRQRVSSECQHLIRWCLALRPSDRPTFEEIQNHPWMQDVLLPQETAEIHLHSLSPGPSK
Method: as §1, §2
Compounds of the invention were initially diluted to 10 mM in 100% DMSO (CALBIOCHEM™) for storage and made into kinase buffer solution to create a compound concentration ranging from 1 uM and 10 uM. Serial dilutions of compounds of the invention were dispensed into a 96-well plate (GREINER BIOSCIENCES™) at 6 μL each. Purified full-length human SYK, ZAP70, PIM1, PYK2 and truncated human FAK, RET, FLT3, JAK2, and LRRK2 (CARNA BIOSCIENCES™) were diluted in kinase buffer and added to the compound solutions and pre-incubated for 30 minutes at room temperature (1 hour for PYK2). […] The reaction mixture was incubated for 1 hour (2 hours for PYK2). Following the incubation, the stop solution made with EDTA, water, and Lance detection buffer ([…]™) was added (12μL each) to stop phosphorylation. […] Substrate phosphorylation was a function of the 665 nm emission measured following the addition of the detection solution and 50 minutes of incubation. The IC50 value of test compound was calculated at Gradpad Prism 5 unless specified otherwise.

[5] = molecular target: JAK2 (Homo sapiens, UniProt O60674); assay: Kinase inhibition assay: JAK2; assay type: biochemical; design: truncated human FAK, RET, FLT3, JAK2, and LRRK2; purchased Carna Biosciences
Chain of JAK2 (O60674 826-1132 limits assumed): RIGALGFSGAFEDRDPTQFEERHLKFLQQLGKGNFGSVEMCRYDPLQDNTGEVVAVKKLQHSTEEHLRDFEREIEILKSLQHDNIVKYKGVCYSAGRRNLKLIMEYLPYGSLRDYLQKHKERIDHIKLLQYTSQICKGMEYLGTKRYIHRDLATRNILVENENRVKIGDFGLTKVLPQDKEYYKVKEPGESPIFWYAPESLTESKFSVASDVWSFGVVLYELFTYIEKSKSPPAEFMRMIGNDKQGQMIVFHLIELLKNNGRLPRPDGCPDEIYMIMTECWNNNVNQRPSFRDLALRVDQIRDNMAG

[6] = molecular target: T4, LRRK2 (Homo sapiens, UniProt Q5S007); assay: Kinase inhibition assay: LRRK2; assay type: biochemical; conditions: at 1 μM concentration
T4 construct: truncated human FAK, RET, FLT3, JAK2, and LRRK2; purchased Carna Biosciences
T4 sequence (Q5S007 970-2527 limits assumed): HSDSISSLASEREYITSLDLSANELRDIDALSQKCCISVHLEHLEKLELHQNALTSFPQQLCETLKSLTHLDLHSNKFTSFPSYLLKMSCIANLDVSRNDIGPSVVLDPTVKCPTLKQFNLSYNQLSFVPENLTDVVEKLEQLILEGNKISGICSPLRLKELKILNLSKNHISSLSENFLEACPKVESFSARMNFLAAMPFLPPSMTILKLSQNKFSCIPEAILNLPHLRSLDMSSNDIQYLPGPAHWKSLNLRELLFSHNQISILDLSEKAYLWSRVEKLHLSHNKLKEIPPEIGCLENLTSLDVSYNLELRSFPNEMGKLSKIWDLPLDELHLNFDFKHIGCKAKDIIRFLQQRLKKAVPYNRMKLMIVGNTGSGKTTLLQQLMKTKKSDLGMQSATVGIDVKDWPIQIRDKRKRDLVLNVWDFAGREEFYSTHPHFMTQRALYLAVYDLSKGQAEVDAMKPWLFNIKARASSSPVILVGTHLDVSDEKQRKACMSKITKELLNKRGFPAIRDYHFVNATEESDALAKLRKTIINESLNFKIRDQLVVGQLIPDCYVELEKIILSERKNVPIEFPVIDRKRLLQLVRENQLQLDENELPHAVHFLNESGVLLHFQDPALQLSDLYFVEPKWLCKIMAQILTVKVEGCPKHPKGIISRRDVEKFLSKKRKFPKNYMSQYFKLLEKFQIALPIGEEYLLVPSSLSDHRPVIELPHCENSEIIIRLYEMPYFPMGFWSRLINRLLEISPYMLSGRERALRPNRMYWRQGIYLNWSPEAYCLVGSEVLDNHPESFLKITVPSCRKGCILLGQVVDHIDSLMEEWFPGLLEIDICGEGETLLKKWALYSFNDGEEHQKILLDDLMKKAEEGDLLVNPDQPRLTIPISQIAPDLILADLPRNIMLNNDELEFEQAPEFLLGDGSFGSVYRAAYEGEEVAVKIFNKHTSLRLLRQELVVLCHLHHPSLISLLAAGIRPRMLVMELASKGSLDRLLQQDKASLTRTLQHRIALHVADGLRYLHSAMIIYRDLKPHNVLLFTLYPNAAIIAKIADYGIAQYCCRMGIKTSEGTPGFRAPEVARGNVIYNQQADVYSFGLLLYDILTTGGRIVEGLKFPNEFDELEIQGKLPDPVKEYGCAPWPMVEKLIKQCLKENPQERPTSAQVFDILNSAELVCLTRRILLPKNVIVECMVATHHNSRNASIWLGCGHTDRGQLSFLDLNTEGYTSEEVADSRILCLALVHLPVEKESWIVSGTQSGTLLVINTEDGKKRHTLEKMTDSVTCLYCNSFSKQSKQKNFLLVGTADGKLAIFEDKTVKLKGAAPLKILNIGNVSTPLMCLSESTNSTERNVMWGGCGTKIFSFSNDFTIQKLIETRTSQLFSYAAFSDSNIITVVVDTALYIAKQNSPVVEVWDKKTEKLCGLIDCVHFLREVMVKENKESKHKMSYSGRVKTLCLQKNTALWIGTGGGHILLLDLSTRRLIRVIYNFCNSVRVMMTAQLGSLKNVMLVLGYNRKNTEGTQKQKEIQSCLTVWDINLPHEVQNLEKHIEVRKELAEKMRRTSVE
Method: as §1, §2, §3

[7] = molecular target: K1T (Homo sapiens, UniProt P10721); assay: Kinase inhibition assay: KIT; assay type: biochemical
Chain of K1T (P10721 26-976): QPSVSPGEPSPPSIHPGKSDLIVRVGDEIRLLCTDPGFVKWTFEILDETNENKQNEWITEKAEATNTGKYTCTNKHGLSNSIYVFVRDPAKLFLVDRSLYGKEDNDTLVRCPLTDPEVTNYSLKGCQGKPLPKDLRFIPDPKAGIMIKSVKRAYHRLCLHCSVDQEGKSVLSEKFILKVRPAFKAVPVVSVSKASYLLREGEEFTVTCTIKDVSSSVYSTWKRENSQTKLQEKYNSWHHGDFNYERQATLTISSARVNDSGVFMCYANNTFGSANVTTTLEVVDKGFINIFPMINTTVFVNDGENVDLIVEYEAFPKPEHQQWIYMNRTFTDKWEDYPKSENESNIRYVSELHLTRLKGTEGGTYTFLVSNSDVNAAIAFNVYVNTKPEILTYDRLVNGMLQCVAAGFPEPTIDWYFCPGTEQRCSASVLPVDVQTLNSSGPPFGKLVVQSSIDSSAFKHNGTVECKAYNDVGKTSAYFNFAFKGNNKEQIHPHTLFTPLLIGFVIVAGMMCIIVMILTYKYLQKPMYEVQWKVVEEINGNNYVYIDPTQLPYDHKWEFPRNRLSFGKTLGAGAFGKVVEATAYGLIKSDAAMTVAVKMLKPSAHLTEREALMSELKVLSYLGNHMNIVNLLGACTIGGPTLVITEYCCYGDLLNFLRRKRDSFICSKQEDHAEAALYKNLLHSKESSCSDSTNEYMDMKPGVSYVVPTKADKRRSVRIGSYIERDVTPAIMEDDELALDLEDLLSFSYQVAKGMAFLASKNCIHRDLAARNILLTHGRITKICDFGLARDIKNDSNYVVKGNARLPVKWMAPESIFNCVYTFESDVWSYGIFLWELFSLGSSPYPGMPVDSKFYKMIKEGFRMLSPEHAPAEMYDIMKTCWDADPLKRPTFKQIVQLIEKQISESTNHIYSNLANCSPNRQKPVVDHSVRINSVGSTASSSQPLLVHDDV

[8] = molecular target: T5, RET (Homo sapiens, UniProt P07949); assay: Kinase inhibition assay: RET; assay type: biochemical
T5 construct: truncated human FAK, RET, FLT3, JAK2, and LRRK2; purchased Carna Biosciences
T5 sequence (P07949 658-1114 limits assumed): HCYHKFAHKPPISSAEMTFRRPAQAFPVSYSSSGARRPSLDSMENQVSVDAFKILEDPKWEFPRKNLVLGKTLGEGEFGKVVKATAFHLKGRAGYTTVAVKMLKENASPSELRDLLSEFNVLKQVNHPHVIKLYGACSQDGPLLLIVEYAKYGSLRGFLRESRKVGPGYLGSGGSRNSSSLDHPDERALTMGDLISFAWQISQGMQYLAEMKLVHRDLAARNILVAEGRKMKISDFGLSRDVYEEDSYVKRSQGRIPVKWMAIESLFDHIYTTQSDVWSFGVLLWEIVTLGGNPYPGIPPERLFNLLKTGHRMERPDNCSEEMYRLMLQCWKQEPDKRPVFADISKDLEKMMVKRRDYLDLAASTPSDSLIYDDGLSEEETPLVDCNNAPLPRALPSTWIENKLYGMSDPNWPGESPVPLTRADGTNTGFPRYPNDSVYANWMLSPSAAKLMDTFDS

inhibition at 1 µM [2]	inhibition at 1 µM [3]	inhibition at 1 µM [4]	IC50 [5]	inhibition at 1 µM [6]	IC50 [7]	IC50 [8]	SMILES	inhibition at 0.3 µM ([1]; 0.3 μM)	inhibition at 1 µM ([1]; 1 μM)
							Cc1cc(C)cc(Nc2ncc(F)c(-n3cc(C)c(CN4CC[C@@H](O)C4)c3)n2)c1 [Compound 82, (R)-1-((1-(2-(3,5-dimethylphenyl-amino)-5-fluoropyrimidin-4-yl)-4-methyl-1H-pyrrol-3-yl)methyl) pyrrolidin-3-ol]	18.1%	21.5%
70.7%	96.4%	71.2%	7.7 nM	93%	137 nM	50 nM	COc1cc(Nc2ncc(C)c(-n3cc(C)c(CO)c3)n2)cc(OC)c1OC [Compound 21, (4-methyl-1-(5-methyl-2-(3,4,5-trimethoxyphenylamino)pyrimidin-4-yl)-1H-pyrrol-3-yl)methanol]		

Reference: US8629132B2, “Kinase inhibitors” (Genosco, priority 2009, dated 2014)
